Paper PMC9317327, “Functional Characterization, Antimicrobial Effects, and Potential Antibacterial Mechanisms of NpHM4, a Derived Peptide of Nautilus pompilius Hemocyanin” (Marine Drugs, 2022)
Converted amounts (≈) assume the structure as drawn. Read-outs that look alike come from different tables or passages of the source. Where a SMILES comes first, the peptide text is derived from it.

What was measured:
Format in all cases: cell-based
[1] = system: Bacillus subtilis ATCC 6051; details: ATCC 6051, 2 h, pH 7.2
Procedure: (§1) The antimicrobial activity of the peptides was determined against Gram-negative bacteria, including V. alginolyticus (A056), E. coli (DH5α), and V. parahaemolyticus (2013V-1174), which were obtained from the South China Sea Institute of Oceanology, Chinese Academy of Sciences. The activity was also tested against the Gram-positive bacteria S. aureus ATCC 25923 and B. subtilis ATCC 6051. To assess the antimicrobial activities of the peptides, bacterial cells were cultured to the logarithmic growth phase and then diluted to 10^6–1.5 × 10^7 CFU/mL with PBS (0.01 M, pH 7.2). Equal volumes of serially diluted peptides, with concentrations ranging from 30 to 450 μM in PBS, and bacteria suspension were mixed and incubated at room temperature for 2 h, respectively. Then, 6 μL of each serially diluted mixture was plated on sterile 12-well agar plates, followed by incubation for 11 to 12 h, and the colonies were assessed to determine the MICs and MBCs. The MICs were expressed (in µM) as an [a]–[b] concentration interval, where [a] is the highest peptide concentration at which bacteria were growing and [b] is the lowest concentration that caused 100% growth inhibition. Cultures without peptides were employed as controls. All the tests were performed in triplicate and repeated three times.

[2] = system: Vibrio alginolyticus (A056)
Procedure: as §1

[3] = system: Escherichia coli (DH5α)
Procedure: as §1

[4] = system: Vibrio parahaemolyticus 2013V-1174; details: 2 h, pH 7.2
Procedure: as §1

[5] = system: Staphylococcus aureus ATCC 25923; details: ATCC 25923, 2 h, pH 7.2
Procedure: as §1

| SMILES | MIC [1] | MIC ([2]; 2 h, pH 7.2) | MIC ([3]; DH5α, 2 h, pH 7.2) | MIC [5] | MBC [1] | MBC ([2]; 2 h, pH 7.2) | MBC ([3]; DH5α, 2 h, pH 7.2) | MBC [4] | MIC [4] | MBC [5] | MIC ([2]; V. alginolyticus A056, 2 h in PBS pH 7.2 at room temperature, plated 11 to 12 h, interval [a]–[b]: [a] highest concentration with growth, [b] lowest with 100% growth inhibition, triplicate, repeated three times) | MBC ([2]; V. alginolyticus A056, 2 h in PBS pH 7.2 at room temperature, plated 11 to 12 h, triplicate, repeated three times) | MBC ([3]; E. coli DH5α, 2 h in PBS pH 7.2 at room temperature, plated 11 to 12 h, triplicate, repeated three times) | MIC ([3]; E. coli DH5α, peptide mixed with bacteria (10^6–1.5 × 10^7 CFU/mL) in PBS 0.01 M pH 7.2, 2 h room temperature, plated on agar 11 to 12 h, interval [a]–[b]: [a] highest concentration with growth, [b] lowest with 100% growth inhibition, triplicate, repeated three times) |
| --- | --- | --- | --- | --- | --- | --- | --- | --- | --- | --- | --- | --- | --- | --- |
| CSCC[C@H](NC(=O)[C@H](Cc1ccccc1)NC(=O)CNC(=O)[C@H](C)NC(=O)[C@H](Cc1ccccc1)NC(=O)[C@@H](N)C(C)C)C(=O)N[C@@H](CC(C)C)C(=O)N[C@@H](Cc1c[nH]cn1)C(=O)NCC(=O)N[C@@H](Cc1ccccc1)C(=O)N[C@@H](CCCCN)C(=O)N[C@@H](CCCCN)C(=O)N[C@@H](CO)C(=O)N[C@@H](C)C(=O)N[C@@H](CC(C)C)C(=O)N[C@H](C(=O)O)C(C)C [NpHN1] (H-VFAGFMLHGFKKSALV-OH) | – | 50 to 260 µM | 250 to 450 µM | – | – | >260 µM | >450 µM | – | – | – | – | – | – | – |
| CC[C@H](C)[C@H](NC(=O)CNC(=O)[C@H](CO)NC(=O)[C@H](CC(C)C)NC(=O)[C@H](CCCNC(=N)N)NC(=O)[C@H](Cc1ccccc1)NC(=O)[C@H](CO)NC(=O)[C@H](C)NC(=O)[C@@H](N)Cc1ccccc1)C(=O)N[C@@H](Cc1c[nH]cn1)C(=O)N[C@H](C(=O)N[C@@H](CO)C(=O)N[C@@H](C)C(=O)N[C@@H](CC(N)=O)C(=O)N[C@H](C(=O)N[C@@H](CCCCN)C(=O)N[C@H](C(=O)N[C@@H](CC(C)C)C(=O)O)C(C)C)C(C)C)[C@@H](C)O [NpHN2] (H-FASFRLSGIHTSANVKVL-OH) | – | 100 to 280 µM | 200 to 500 µM | – | – | >280 µM | >500 µM | – | – | – | – | – | – | – |
| CC[C@H](C)[C@H](NC(=O)[C@H](CS)NC(=O)[C@H](CS)NC(=O)[C@H](C)NC(=O)[C@H](Cc1ccc(O)cc1)NC(=O)[C@H](CCCNC(=N)N)NC(=O)[C@H](Cc1c[nH]cn1)NC(=O)[C@H](CC(C)C)NC(=O)[C@H](C)NC(=O)[C@@H](N)CCCCN)C(=O)N[C@@H](Cc1c[nH]cn1)C(=O)NCC(=O)N[C@@H](CCSC)C(=O)N[C@@H](C)C(=O)N[C@H](C(=O)O)[C@@H](C)O [NpHN3] (H-KALHRYACCIHGMAT-OH) | – | 50 to 250 µM | 250 to 450 µM | – | – | >250 µM | >450 µM | – | – | – | – | – | – | – |
| CC[C@H](C)[C@H](NC(=O)[C@H](CCCNC(=N)N)NC(=O)[C@@H](NC(=O)[C@H](CC(N)=O)NC(=O)[C@H](C)NC(=O)[C@H](CO)NC(=O)[C@H](C)NC(=O)[C@H](CCC(N)=O)NC(=O)[C@@H](NC(=O)CNC(=O)[C@H](Cc1c[nH]cn1)NC(=O)[C@H](CC(C)C)NC(=O)[C@H](CC(C)C)NC(=O)[C@H](Cc1ccccc1)NC(=O)CN)[C@@H](C)CC)C(C)C)C(=O)O [NpHN4] (H-GFLLHGIQASANVRI-OH) | – | 100 to 300 µM | 200 to 600 µM | – | – | >300 µM | >600 µM | – | – | – | – | – | – | – |
| CC[C@H](C)[C@H](NC(=O)CNC(=O)[C@H](Cc1c[nH]cn1)NC(=O)[C@H](CC(C)C)NC(=O)[C@H](CC(C)C)NC(=O)[C@H](Cc1ccccc1)NC(=O)CNC(=O)[C@H](C)NC(=O)[C@H](Cc1ccccc1)NC(=O)[C@@H](NC(=O)[C@@H](N)CCCNC(=N)N)C(C)C)C(=O)N[C@@H](CCCCN)C(=O)N[C@@H](CCCNC(=N)N)C(=O)N[C@@H](CO)C(=O)N[C@@H](C)C(=O)O [NpHN5] (H-RVFAGFLLHGIKRSA-OH) | – | – | – | – | – | – | – | – | – | – | 50 to 250 µM | 250 µM (≈ 418 µg/mL) | 450 µM (≈ 752 µg/mL) | 200 to 450 µM |

More lines, main results first:

| MIC [1] | MIC ([2]; 2 h, pH 7.2) | MIC ([3]; DH5α, 2 h, pH 7.2) | MIC [5] | SMILES | MBC [1] | MBC ([2]; 2 h, pH 7.2) | MBC ([3]; DH5α, 2 h, pH 7.2) | MBC [4] | MIC [4] | MBC [5] | MIC ([2]; V. alginolyticus A056, 2 h in PBS pH 7.2 at room temperature, plated 11 to 12 h, interval [a]–[b]: [a] highest concentration with growth, [b] lowest with 100% growth inhibition, triplicate, repeated three times) | MBC ([2]; V. alginolyticus A056, 2 h in PBS pH 7.2 at room temperature, plated 11 to 12 h, triplicate, repeated three times) | MBC ([3]; E. coli DH5α, 2 h in PBS pH 7.2 at room temperature, plated 11 to 12 h, triplicate, repeated three times) | MIC ([3]; E. coli DH5α, peptide mixed with bacteria (10^6–1.5 × 10^7 CFU/mL) in PBS 0.01 M pH 7.2, 2 h room temperature, plated on agar 11 to 12 h, interval [a]–[b]: [a] highest concentration with growth, [b] lowest with 100% growth inhibition, triplicate, repeated three times) |
| --- | --- | --- | --- | --- | --- | --- | --- | --- | --- | --- | --- | --- | --- | --- |
| >60 µM | 50 to 150 µM | 15 to 60 µM | >60 µM | CC[C@H](C)[C@H](NC(=O)CNC(=O)[C@H](Cc1c[nH]cn1)NC(=O)[C@H](CCCNC(=N)N)NC(=O)[C@H](CC(C)C)NC(=O)[C@H](Cc1ccccc1)NC(=O)CNC(=O)[C@H](C)NC(=O)[C@H](Cc1ccccc1)NC(=O)[C@@H](NC(=O)[C@@H](N)CCCNC(=N)N)C(C)C)C(=O)N[C@@H](CCCCN)C(=O)N[C@@H](CCCNC(=N)N)C(=O)N[C@@H](CO)C(=O)N[C@@H](C)C(=O)O [NpHM1] (H-RVFAGFLRHGIKRSA-OH) | >60 µM | >150 µM | >60 µM | >60 µM | 15 to 60 µM | >60 µM | – | – | – | – |
| – | 70 to 150 µM | 30 to 60 µM | – | CC[C@H](C)[C@H](NC(=O)CNC(=O)[C@H](Cc1c[nH]cn1)NC(=O)[C@H](CC(C)C)NC(=O)[C@H](CC(C)C)NC(=O)[C@H](Cc1ccccc1)NC(=O)CNC(=O)[C@H](C)NC(=O)[C@H](Cc1ccccc1)NC(=O)[C@@H](NC(=O)[C@@H](N)CCCNC(=N)N)C(C)C)C(=O)N[C@@H](CCCCN)C(=O)N[C@@H](CCCNC(=N)N)C(=O)N[C@@H](CO)C(=O)N[C@@H](CCCNC(=N)N)C(=O)O [NpHM2] (H-RVFAGFLLHGIKRSR-OH) | – | >75 µM | – | >60 µM | 30 to 60 µM | – | – | – | – | – |
| >60 µM | 30 to 75 µM | 15 to 50 µM | >60 µM | CC[C@H](C)[C@H](NC(=O)CNC(=O)[C@H](Cc1c[nH]cn1)NC(=O)[C@H](CC(C)C)NC(=O)[C@H](CC(C)C)NC(=O)[C@H](Cc1ccccc1)NC(=O)CNC(=O)[C@H](C)NC(=O)[C@H](CCCNC(=N)N)NC(=O)[C@@H](NC(=O)[C@@H](N)CCCNC(=N)N)C(C)C)C(=O)N[C@@H](CCCCN)C(=O)N[C@@H](CCCNC(=N)N)C(=O)N[C@@H](CO)C(=O)N[C@@H](C)C(=O)O [NpHM3] (H-RVRAGFLLHGIKRSA-OH) | >60 µM | >150 µM | >60 µM | >60 µM | 15 to 60 µM | >60 µM | – | – | – | – |
| >50 µM | 15 to 70 µM | >50 µM | >50 µM | CC[C@H](C)[C@H](NC(=O)CNC(=O)[C@H](Cc1c[nH]cn1)NC(=O)[C@H](CC(C)C)NC(=O)[C@H](CC(C)C)NC(=O)[C@H](Cc1ccccc1)NC(=O)CNC(=O)[C@H](C)NC(=O)[C@H](CCCNC(=N)N)NC(=O)[C@@H](NC(=O)[C@@H](N)CCCNC(=N)N)C(C)C)C(=O)N[C@@H](CCCCN)C(=O)N[C@@H](CCCNC(=N)N)C(=O)N[C@@H](CO)C(=O)N[C@@H](CCCNC(=N)N)C(=O)O [NpHM5] (H-RVRAGFLLHGIKRSR-OH) | >50 µM | >70 µM | >50 µM | >70 µM | 15 to 70 µM | >50 µM | – | – | – | – |
| >50 µM | >70 µM | >50 µM | >50 µM | CC[C@H](C)[C@H](NC(=O)CNC(=O)[C@H](Cc1c[nH]cn1)NC(=O)[C@H](CCCNC(=N)N)NC(=O)[C@H](CC(C)C)NC(=O)[C@H](Cc1ccccc1)NC(=O)CNC(=O)[C@H](C)NC(=O)[C@H](CCCNC(=N)N)NC(=O)[C@@H](NC(=O)[C@@H](N)CCCNC(=N)N)C(C)C)C(=O)N[C@@H](CCCCN)C(=O)N[C@@H](CCCNC(=N)N)C(=O)N[C@@H](CO)C(=O)N[C@@H](C)C(=O)O [NpHM6] (H-RVRAGFLRHGIKRSA-OH) | >50 µM | >70 µM | >50 µM | >60 µM | 15 to 60 µM | >50 µM | – | – | – | – |
| >150 µM | >150 µM | >150 µM | >150 µM | CC[C@H](C)[C@H](NC(=O)CNC(=O)[C@H](Cc1c[nH]cn1)NC(=O)[C@H](CCCNC(=N)N)NC(=O)[C@H](CC(C)C)NC(=O)[C@H](Cc1ccccc1)NC(=O)CNC(=O)[C@H](C)NC(=O)[C@H](CCCNC(=N)N)NC(=O)[C@@H](NC(=O)[C@@H](N)CCCNC(=N)N)C(C)C)C(=O)N[C@@H](CCCCN)C(=O)N[C@@H](CCCNC(=N)N)C(=O)N[C@@H](CO)C(=O)N[C@@H](CCCNC(=N)N)C(=O)O [NpHM7] (H-RVRAGFLRHGIKRSR-OH) | >150 µM | >150 µM | >150 µM | >150 µM | >150 µM | >150 µM | – | – | – | – |
| – | 100 to 300 µM | 250 to 500 µM | – | CC[C@H](C)[C@H](NC(=O)CNC(=O)[C@H](Cc1c[nH]cn1)NC(=O)[C@H](CC(C)C)NC(=O)[C@H](CC(C)C)NC(=O)[C@H](Cc1ccccc1)NC(=O)CNC(=O)[C@H](C)NC(=O)[C@H](Cc1ccccc1)NC(=O)[C@@H](NC(=O)[C@@H](N)CCCNC(=N)N)[C@@H](C)CC)C(=O)NCC(=O)N[C@@H](CCC(N)=O)C(=O)N[C@@H](CO)C(=O)N[C@@H](C)C(=O)O [NpHN6] (H-RIFAGFLLHGIGQSA-OH) | – | – | >500 µM | – | – | – | – | – | – | – |
